This note sets out measurements from the NIST ThermoML archive (doi:10.1021/acs.jced.9b00703).

The conditions of data set [1]: Crystal; DSC.
Data set [2] is described as follows: Molar enthalpy of transition or fusion. The following applies: Crystal; DSC.

Numbers after ± are expanded uncertainties.

On to `OC[C@H]1O[C@@H](Oc2ccc(O)cc2)[C@H](O)[C@@H](O)[C@@H]1O` [β-arbutin], for which the Triple point temperature in data set [1] amounted to 475.25 ± 0.87 K. Further, in data set [2], the “Molar enthalpy of transition or fusion” value turned out to be 10.7 ± 0.382 kcal/mol.
